Measured values as given in patent publication US20250333406A1, “SULFONYL CYCLIC DERIVATIVES, AND COMPOSITIONS AND METHODS THEREOF” (Lysoway Therapeutics, Inc., priority 2023, published 2025).

Tested on: TFEB
Assay: TFEB Nuclear Translocation Assay
Format: cell-based
Conditions: read-out: EC50 of TFEB activation

| EC50 | SMILES |
| --- | --- |
| ≤ 1000 nM | CC(F)(F)c1ccc(S(=O)(=O)n2nc(N3CCN(c4ncc(F)cn4)CC34CC4)c3c(Cl)cc(F)cc32)cc1 [Compound 91, 4-chloro-1-[4-(1,1-difluoroethyl)phenyl]sulfonyl-6-fluoro-3-[7-(5-fluoropyrimidin-2-yl)-4,7-diazaspiro [2.5]octan-4-yl]indazole] |
| ≤ 1000 nM | O=S(=O)(c1ccc(SC(F)F)cc1)n1nc(N2CCN(c3ncc(F)cn3)CC23CC3)c2c(Cl)cccc21 [Compound 93, 4-chloro-1-[4-(difluoromethylsulfanyl)phenyl]sulfonyl-3-[7-(5-fluoropyrimidin-2-yl)-4,7-diazaspiro [2.5]octan-4-yl]indazole] |
| ≤ 1000 nM | CC(C)(C)c1ccc(S(=O)(=O)n2nc(N3CCN(c4ncc(F)cn4)CC34CC4)c3c(Cl)cccc32)cc1 [Compound 94, 1-((4-(tert-butyl)phenyl)sulfonyl)-4-chloro-3-(7-(5-fluoropyrimidin-2-yl)-4,7-diazaspiro [2.5]octan-4-yl)-1H-indazole] |
| ≤ 1000 nM | CC(C)(CF)c1ccc(S(=O)(=O)n2nc(N3CCN(c4ncc(F)cn4)CC34CC4)c3c(Cl)cccc32)cc1 [Compound 96, 4-chloro-1-[4-(2-fluoro-1,1-dimethyl-ethyl)phenyl]sulfonyl-3-[7-(5-fluoropyrimidin-2-yl)-4,7-diazaspiro [2.5]octan-4-yl]indazole] |
| ≤ 1000 nM | CC(C)(F)c1ccc(S(=O)(=O)n2nc(N3CCN(c4ncc(F)cn4)CC34CC4)c3c(Cl)cccc32)cc1 [Compound 97, 4-chloro-1-((4-(2-fluoropropan-2-yl)phenyl)sulfonyl)-3-(7-(5-fluoropyrimidin-2-yl)-4,7-diazaspiro [2.5]octan-4-yl)-1H-indazole] |
| ≤ 1000 nM | CC(C)(c1ccc(S(=O)(=O)n2nc(N3CCN(c4ncc(F)cn4)CC34CC4)c3c(Cl)cccc32)cc1)C(F)F [Compound 99, 4-chloro-1-[4-(2,2-difluoro-1,1-dimethyl-ethyl)phenyl]sulfonyl-3-[7-(5-fluoropyrimidin-2-yl)-4,7-diazaspiro[2.5]octan-4-yl]indazole] |
| ≤ 1000 nM | CC(F)(F)c1ccc(S(=O)(=O)n2nc(N3CCN(c4ncc(F)cn4)CC34CC4)c3c(Cl)ccc(F)c32)cc1 [Compound 103, 4-chloro-1-[4-(1,1-difluoroethyl)phenyl]sulfonyl-7-fluoro-3-[7-(5-fluoropyrimidin-2-yl)-4,7-diazaspiro [2.5]octan-4-yl]indazole] |
| ≤ 1000 nM | CC(F)(F)c1ccc(S(=O)(=O)n2nc(N3CCC3C(F)(F)F)c3c(Cl)cccc32)cc1 (stereo not drawn) [Compound 104, 4-chloro-1-[4-(1,1-difluoroethyl)phenyl]sulfonyl-3-[2-(trifluoromethyl)azetidin-1-yl]indazole] |
| ≤ 1000 nM | CC(F)(F)c1ccc(S(=O)(=O)n2nc(N3CCN(c4ncc(F)cn4)CC3C(C)(C)F)c3c(Cl)cccc32)cc1 (stereo not drawn) [Compound 105, 4-chloro-1-((4-(1,1-difluoroethyl)phenyl)sulfonyl)-3-(2-(2-fluoropropan-2-yl)-4-(5-fluoropyrimidin-2-yl)piperazin-1-yl)-1H-indazole] |
| ≤ 1000 nM | CC(F)(F)c1ccc(S(=O)(=O)n2nc(N3CCN(c4ncc(F)cn4)C[C@H]3C(F)(F)F)c3c(Cl)cccc32)cc1 [Compound 106, 4-chloro-1-[4-(1,1-difluoroethyl)phenyl]sulfonyl-3-[(2S)-4-(5-fluoropyrimidin-2-yl)-2-(trifluoromethyl)piperazin-1-yl]indazole] |
| ≤ 1000 nM | CC(F)(F)c1ccc(S(=O)(=O)n2nc(N3CCN(c4ncc(F)cn4)CC3C(C)(C)C)c3c(Cl)cccc32)cc1 (stereo not drawn) [Compound 108, 3-[2-tert-butyl-4-(5-fluoropyrimidin-2-yl)piperazin-1-yl]-4-chloro-1-[4-(1,1-difluoroethyl)phenyl]sulfonyl-indazole] |
| ≤ 1000 nM | CC(C)S(=O)(=O)c1ccc(S(=O)(=O)n2nc(N3CCC[C@@H]3C(F)(F)F)c3c(Cl)cccc32)cc1 [Compound 109, 4-chloro-1-(4-isopropylsulfonylphenyl)sulfonyl-3-[(2R)-2-(trifluoromethyl)pyrrolidin-1-yl]indazole] |
| ≤ 1000 nM | CC(C)S(=O)(=O)n1ccc(S(=O)(=O)n2nc(N3CCN(c4ncc(F)cn4)CC34CC4)c3c(Cl)cccc32)c1 [Compound 111, 4-chloro-3-[7-(5-fluoropyrimidin-2-yl)-4,7-diazaspiro [2.5]octan-4-yl]-1-(1-isopropylsulfonylpyrrol-3-yl) sulfonyl-indazole] |
| ≤ 1000 nM | O=S(=O)(c1ccc(C(F)F)cc1)n1nc(N2CCN(c3ncc(F)cn3)CC2C2CC2)c2c(Cl)cccc21 (stereo not drawn) [Compound 112, 4-chloro-3-[2-cyclopropyl-4-(5-fluoropyrimidin-2-yl)piperazin-1-yl]-1-[4-(difluoromethyl)phenyl]sulfonyl-indazole] |
| ≤ 1000 nM | O=S(=O)(c1ccc(C(F)(F)F)cc1)n1nc(N2CCN(c3ncc(F)cn3)CC23CC3)c2c(Cl)cccc21 [Compound 113, 4-chloro-3-[7-(5-fluoropyrimidin-2-yl)-4,7-diazaspiro[2.5]octan-4-yl]-1-[4-(trifluoromethyl)phenyl]sulfonyl-indazole] |
| ≤ 1000 nM | O=S(=O)(c1ccc(S(=O)(=O)n2nc(N3CCN(c4ncc(F)cn4)CC34CC4)c3c(Cl)cccc32)cc1)C(F)F [Compound 114, 4-chloro-1-[4-(difluoromethylsulfonyl)phenyl]sulfonyl-3-[7-(5-fluoropyrimidin-2-yl)-4,7-diazaspiro[2.5]octan-4-yl]indazole] |
| ≤ 1000 nM | O=S(=O)(c1ccc(OC(F)F)cc1)n1nc(N2CCN(c3ncc(F)cn3)CC23CC3)c2c(Cl)cccc21 [Compound 115, 4-chloro-1-[4-(difluoromethoxy)phenyl]sulfonyl-3-[7-(5-fluoropyrimidin-2-yl)-4,7-diazaspiro[2.5]octan-4-yl]indazole] |
| ≤ 1000 nM | CC(F)(F)c1ccc(S(=O)(=O)n2nc(N3CCN(c4ncc(F)cn4)CC34CC4)c3c(Cl)cccc32)cc1 [Compound 116, 4-chloro-1-[4-(1,1-difluoroethyl)phenyl]sulfonyl-3-[7-(5-fluoropyrimidin-2-yl)-4,7-diazaspiro[2.5]octan-4-yl]indazole] |
| ≤ 1000 nM | O=S(=O)(c1ccc(OC(F)(F)F)cc1)n1nc(N2CCN(c3ncc(F)cn3)CC23CC3)c2c(Cl)cccc21 [Compound 117, 4-chloro-3-[7-(5-fluoropyrimidin-2-yl)-4,7-diazaspiro [2.5]octan-4-yl]-1-[4-(trifluoromethoxy)phenyl]sulfonyl-indazole] |
| ≤ 1000 nM | O=S(=O)(c1ccc(SC(F)(F)F)cc1)n1nc(N2CCN(c3ncc(F)cn3)CC23CC3)c2c(Cl)cccc21 [Compound 118, 4-chloro-3-[7-(5-fluoropyrimidin-2-yl)-4,7-diazaspiro[2.5]octan-4-yl]-1-[4-(trifluoromethylsulfanyl)phenyl]sulfonyl-indazole] |
| ≤ 1000 nM | CC(F)(F)c1ccc(S(=O)(=O)n2nc(N3CCN(C4COC4)CC34CC4)c3c(Cl)cccc32)cc1 [Compound 119, 4-chloro-1-((4-(1,1-difluoroethyl)phenyl)sulfonyl)-3-(7-(oxetan-3-yl)-4,7-diazaspiro[2.5]octan-4-yl)-1H-indazole] |
| ≤ 1000 nM | CC(F)(F)c1ccc(S(=O)(=O)n2nc(N3CCN(C4COC4)CC3C(F)(F)F)c3c(Cl)cccc32)cc1 (stereo not drawn) [Compound 120, 4-chloro-1-((4-(1,1-difluoroethyl)phenyl)sulfonyl)-3-(4-(oxetan-3-yl)-2-(trifluoromethyl)piperazin-1-yl)-1H-indazole] |
| ≤ 1000 nM | CC(F)(F)c1ccc(S(=O)(=O)n2nc(N3CCN(c4ncc(F)cn4)C[C@H]3C(C)(C)F)c3c(Cl)cccc32)cc1 [Compound 121, (S)-4-chloro-1-((4-(1,1-difluoroethyl)phenyl)sulfonyl)-3-(2-(2-fluoropropan-2-yl)-4-(5-fluoropyrimidin-2-yl)piperazin-1-yl)-1H-indazole] |

| SMILES | EC50 |
| --- | --- |
| CC(C)C(F)(F)c1ccc(S(=O)(=O)n2nc(N3CCN(c4ncc(F)cn4)CC34CC4)c3c(Cl)cccc32)cc1 [Compound 90, 4-chloro-1-[4-(1,1-difluoro-2-methyl-propyl)phenyl]sulfonyl-3-[7-(5-fluoropyrimidin-2-yl)-4,7-diazaspiro [2.5]octan-4-yl]indazole] | ≤ 1000 nM |
| O=S(=O)(c1ccc(C(F)(F)C2CC2)cc1)n1nc(N2CCN(c3ncc(F)cn3)CC23CC3)c2c(Cl)cccc21 [Compound 92, 4-chloro-1-((4-(cyclopropyldifluoromethyl)phenyl)sulfonyl)-3-(7-(5-fluoropyrimidin-2-yl)-4,7-diazaspiro [2.5]octan-4-yl)-1H-indazole] | ≤ 1000 nM |
| O=S(=O)(c1ccc(C(F)(F)C(F)F)cc1)n1nc(N2CCN(c3ncc(F)cn3)CC23CC3)c2c(Cl)cccc21 [Compound 95, 4-chloro-3-(7-(5-fluoropyrimidin-2-yl)-4,7-diazaspiro [2.5]octan-4-yl)-1-((4-(1,1,2,2-tetrafluoroethyl)phenyl)sulfonyl)-1H-indazole] | ≤ 1000 nM |
| O=S(=O)(c1ccc(C(F)(F)CF)cc1)n1nc(N2CCN(c3ncc(F)cn3)CC23CC3)c2c(Cl)cccc21 [Compound 98, 4-chloro-3-[7-(5-fluoropyrimidin-2-yl)-4,7-diazaspiro [2.5]octan-4-yl]-1-[4-(1,1,2-trifluoroethyl)phenyl]sulfonyl-indazole] | ≤ 1000 nM |
| CC(C)(C)c1ncc(S(=O)(=O)n2nc(N3CCN(c4ncc(F)cn4)CC34CC4)c3c(Cl)cccc32)cn1 [Compound 100, 1-(2-tert-butylpyrimidin-5-yl) sulfonyl-4-chloro-3-[7-(5-fluoropyrimidin-2-yl)-4,7-diazaspiro [2.5]octan-4-yl]indazole] | ≤ 1000 nM |
| O=S(=O)(c1ccc(C2(C(F)(F)F)CC2)cc1)n1nc(N2CCN(c3ncc(F)cn3)CC23CC3)c2c(Cl)cccc21 [Compound 101, 4-chloro-3-[7-(5-fluoropyrimidin-2-yl)-4,7-diazaspiro [2.5]octan-4-yl]-1-[4-[1-(trifluoromethyl)cyclopropyl]phenyl]sulfonyl-indazole] | ≤ 1000 nM |
| CCC(F)(F)c1ccc(S(=O)(=O)n2nc(N3CCN(c4ncc(F)cn4)CC34CC4)c3c(Cl)cccc32)cc1 [Compound 102, 4-chloro-1-[4-(1,1-difluoropropyl)phenyl]sulfonyl-3-[7-(5-fluoropyrimidin-2-yl)-4,7-diazaspiro [2.5]octan-4-yl]indazole] | ≤ 1000 nM |
